Columns and labels:
MRC-5 cells = experiment: evidence of cytotoxicity by microscopy after 72 hours; format: cell-based; design: unit not given beside the values; details: 37° C., microscopic cytotoxicity
Description: (§1) Continuous passaged MRC-5 cells obtained from the American Type Culture Collection (Bethesda, Md.) were used for testing of herpes-type virus, with growth medium consisting of Minimum Essential Medium (MEM) supplemented with 0.1% NaHCO3 and […] gentamicin.
(§2) To a 96 well microtiter plate containing an established 24 hour monolayer of cells from which the medium has been decanted was added 0.1 mL of varying (one-half log10) concentrations of test compound, which incubated on the cell 15 minutes, after which 0.1 mL of virus in a concentration of 320 cell culture 50% infectious doses (CCID50)/0.1 mL was added. The plate was covered with plastic wrap and incubated at 37° C. The cells were examined microscopically after 72 hours for evidence of cytotoxicity and for viral cytopathic effect (CPE).

cytomegalovirus = experiment: in vitro antiviral evaluation, viral cytopathic effect (CPE) by microscopy after 72 hours; format: cell-based; details: TI column of Table 1 (equals CD50/ED50); 4320 min
Description: The compounds prepared in the previous Examples were evaluated in vitro as antiviral agents against cytomegalovirus, as follows.
The herpes virus strain employed was Strain McCrae of type 1 herpes (thymidine kinase positive virus) (HSV-1TK^+). This strain was prepared and titered in MA-104 cells and frozen at -90° C. until use. Also used were strain HF (HSV-1TK^-), strain E194 (HSV-2), NJB strain (MCMV), and strain AD169 (HCMV).
as §1, §2

Work on `Nc1cc2ccncc2c2sc3ccccc3c12` [Compound 1] yielded a CD50 (MRC-5 cells) greater than 10 and a TI (cytomegalovirus) greater than 100.

From US5747511A, “Benzothiophene analogs as antiviral agents” (SRI International, priority 1995, dated 1998)
